According to patent publication US7566787B2, “Small molecule cyclin D1 ablative agents” (The Ohio State University, priority 2004, dated 2009):
Where two headings read alike, the source gives them in different places.

Experiments:
MCF-7 cells = test: MTT cell viability assay; assay type: cell-based; conditions: Homo sapiens
Description: Cell viability analysis. The effect of individual test agents on cell viability was assessed by using the MTT [3-(4,5-dimethylthiazol-2-yl)-2,5-diphenyl-2H-tetrazolium bromide] assay in six replicates. Cells were seeded and incubated in 96-well, flat-bottomed plates in DMEM-F12 media with 10% FBS for 24 h, and were exposed to various concentrations of test agents dissolved in DMSO (final DMSO concentration, 0.1%) in 5% FBS-supplemented DMEM-F12 medium. Controls received DMSO vehicle at a concentration equal to that of drug-treated cells. The medium was removed, replaced by 200 μl of 0.5 mg/ml of MTT in 10% FBS-containing RPMI-1640 medium, and cells were incubated in the CO2 incubator at 37° C. for 2 h. Supernatants were removed from the wells, and the reduced MTT dye was solubilized in 200 μl/well DMSO. Absorbance at 570 nm was determined on a plate reader.

cyclin D1 = test: Western blot analysis of cyclin D1 expression in MCF-7 cells; assay type: cell-based, human; conditions: for minimum concentration required for the complete ablation of cyclin D1: 24 h, 5% FBS; for concentration at which cyclin D1 levels are reduced: FIG. 8B
Description: (§1) Western Blot Analysis. MCF-7 or MDA-MB-231 cells were seeded in 10% FBS-containing DMEM-F-12 for 24 h and treated with various agents as indicated. After individual treatments for 24 h, both the incubation medium and adherent cells in T-25 or T-75 flasks were scraped and collected by centrifugation at 2,000×g for 10 min. The pellets were recovered, placed on ice, and triturated with 20 to 50 μl of a chilled lysis buffer (M-PER® Mammalian Protein Extraction Reagent, Pierce, Rockford, Ill.) to which was added 1% protease inhibitor cocktail (set III, EMD Biosciences, Inc. San Diego, Calif.). After a 30 min-incubation on ice, the mixture was centrifuge at 16,100×g for 3 min. Two μl of the suspension was taken for protein analysis using the Bradford assay kit (Bio-Rad, Hercules, Calif.). To the remaining solution was added the same volume of 2× SDS-PAGE sample loading buffer (100 mM Tris-HCl, pH 6.8, 4% SDS, 5% β-mercaptoethanol 20% glycerol, and 0.1% bromophenol blue). The mixture was boiled for 10 min. Equal amounts of proteins were loaded onto 10% SDS-PAGE gels. After electrophoresis, protein bands were transferred to nitrocellulose membranes in a semi-dry transfer cell. The transblotted membrane was blocking with TBST [Tris-buffered saline (TBS) containing 0.1% Tween 20] containing 5% nonfat milk for 90 min, and the membrane was incubated with the appropriate primary antibody in TBST-5% nonfat milk at 4° C. overnight. After washing three times with TBST for a total of 45 min, the transblotted membrane was incubated with goat anti-rabbit or anti-mouse IgG-horseradish peroxidase conjugates (diluted 1:1000) for 1 h at room temperature and washed four times with TBST for a total of 1 h. The immunoblots were visualized by enhanced chemiluminescence.

PPARγ = target: T1, PPARγ (Homo sapiens, UniProt P37231); test: Analysis of PPARγ activation (PPARγ transcription factor ELISA, MCF-7 nuclear extracts); assay type: cell-based; conditions: 10 μM, 48 h, MCF-7 cells
T1 construct: endogenous in cells; host or cells: MCF-7 (nuclear extracts)
T1 sequence (P37231 1-505): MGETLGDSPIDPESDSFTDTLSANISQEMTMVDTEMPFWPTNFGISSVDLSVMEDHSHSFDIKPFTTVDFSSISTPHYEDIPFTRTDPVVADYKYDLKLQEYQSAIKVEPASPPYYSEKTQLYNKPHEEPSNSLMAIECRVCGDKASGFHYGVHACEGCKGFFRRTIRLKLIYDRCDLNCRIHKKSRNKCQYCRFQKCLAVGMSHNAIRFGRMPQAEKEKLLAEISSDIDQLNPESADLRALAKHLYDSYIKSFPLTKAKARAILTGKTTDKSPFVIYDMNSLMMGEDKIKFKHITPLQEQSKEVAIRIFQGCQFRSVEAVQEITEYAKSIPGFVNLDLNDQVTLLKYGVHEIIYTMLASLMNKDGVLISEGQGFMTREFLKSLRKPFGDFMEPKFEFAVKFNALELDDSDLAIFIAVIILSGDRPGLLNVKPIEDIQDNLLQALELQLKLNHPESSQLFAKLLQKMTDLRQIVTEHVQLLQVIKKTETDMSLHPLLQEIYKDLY
Description: Analysis of PPARγ activation. The analysis was carried out by using a PPARγ transcription factor ELISA kit (Active Motif, Carlsbad, Calif.), in which an oligonucleotide containing the peroxisome proliferator response element (PPRE) was immobilized onto a 96-well plate. PPARs contained in nuclear extracts bind specifically to this oligonucleotide and are detected through an antibody directed against PPARγ. In brief, MCF-7 cells were cultured in RPMI 1640 medium supplemented with 10% FBS, and treated with DMSO vehicle or individual test agents, 10 μM each, for 48 h. Cells were collected, and nuclear extracts were prepared with a Nuclear Extract kit (Active Motif, Carlsbad, Calif.). Nuclear extracts of the same protein concentration from individual treatments were subject to the PPARγ transcription factor ELISA according to the manufacturer's instruction.

cyclin D1 gene mRNA = test: RT-PCR analysis of mRNA transcripts of cyclin D1 gene in MCF-7 cells; assay type: cell-based, human; conditions: 24 h exposure, 40 μM TG, 30 μM Δ2-TG
Description: Reverse transcriptase (RT-) PCR analysis of mRNA transcripts of cyclin D1 gene. MCF7 cells were subject to total RNA isolation by using RNeasy mini kit (Qiagen, Valencia, Calif.). RNA concentrations and quality were assessed spectrophotometrically by measuring absorption at 260 nm. Aliquots of 20 μg of total RNA from each sample was reverse transcribed to cDNA using Omniscript RT Kit (Qiagen) according to manufacturer's instructions. The primers used were as follows: cyclin D1, forward, 5′-[…]-3′, reverse, 5′-[…]-3′; β-actin, forward, 5′-[…]-3′, reverse, 5′-[…]-3′. The reaction conditions were as follows: for cyclin D1 (a) initial denaturation at 95° C. for 5 min; (b) 34 cycles of amplification (95° C. for 1 min, 65° C. for 1 min 45 s, and 72° C. for 1 min); and (c) a final extension step of 10 min at 72° C.; for β-actin (a) initial denaturation at 95° C. for 3 min; (b) 40 cycles of amplification (95° C. for 30 s, 58° C. for 20 s, and 72° C. for 45 s); and (c) a final extension step of 10 min at 72° C.

[1] = system: cyclins D2, D3, A, B, and E, and cyclin-dependent kinases (CDKs) 2 and 4; test: Western blot of other cyclins and CDKs in MCF-7 cells; assay type: cell-based, human; conditions: different doses, 24 h
Description: as §1, with “The transblotted membrane was blocking with TBST [Tris-buffered saline (TBS) containing 0.1% Tween 20] containing 5% nonfat milk for 90 min, and the membrane was incubated with the appropriate primary antibody in TBST-5% nonfat milk at 4° C. overnight. After washing three times with TBST for a total of 45 min, the transblotted membrane was incubated with goat anti-rabbit or anti-mouse IgG-horseradish peroxidase conjugates (diluted 1:1000) for 1 h at room temperature and washed four times with TBST for a total of 1 h. The immunoblots were visualized by enhanced chemiluminescence.” left out

ubiquitinated cyclin D1 = test: Coimmunoprecipitation/Western blot of cyclin D1 ubiquitination in MCF-7 cells; assay type: cell-based, human; conditions: 30 μM TG or 20 μM Δ2-TG, 20 h
Description: Coimmunoprecipitation/Western Blot. MCF-7 cells were cultured in 10% FBS-containing DMEM-F-12 in 75-mm plates for 24 h. Cell were treated with DMSO vehicle, 30 μM TG, or 20 μM Δ2-TG in 5% FBS-containing DMEM-F12 medium for another 20 hours. Cells were rinsed with PBS at room temperature, scraped off the flask, transferred into centrifuge tubes, and centrifuged at 2,000×g for 10 min to pellet the cells. […] These cell lysates were treated with 100 μl of protein A-agarose bead slurry, followed by brief centrifugation, to remove nonspecific binding proteins. Equal amounts of proteins from these lysates, as determined by the Bradford assay, were mixed with anti-cyclin D1 in an orbital shaker at 23° C. for 2 h, followed by 100 μl of protein A-agarose bead slurry at 4° C. for 12 h. The immunocomplex was collected by brief centrifugation, washed 4 times with 800 μl of ice-cold RIPA buffer, and suspended in 50 μl of the aforementioned 2× SDS sample loading buffer. The suspension was boiled for 10 min, cooled, and briefly centrifuged to remove the beads. Western blot analysis was performed with anti-cyclin D1 or anti-ubiquitin as described above.

GSK-3β = test: Western blot of GSK-3β phosphorylation in MCF-7 cells; assay type: cell-based, human; conditions: different doses
Description: as §1, with “The transblotted membrane was blocking with TBST [Tris-buffered saline (TBS) containing 0.1% Tween 20] containing 5% nonfat milk for 90 min, and the membrane was incubated with the appropriate primary antibody in TBST-5% nonfat milk at 4° C. overnight. After washing three times with TBST for a total of 45 min, the transblotted membrane was incubated with goat anti-rabbit or anti-mouse IgG-horseradish peroxidase conjugates (diluted 1:1000) for 1 h at room temperature and washed four times with TBST for a total of 1 h. The immunoblots were visualized by enhanced chemiluminescence.” left out

ERα = test: Western blot analysis of ERα expression in MCF-7 cells; assay type: cell-based, human; conditions: 24 h
Description: as §1, with “The transblotted membrane was blocking with TBST [Tris-buffered saline (TBS) containing 0.1% Tween 20] containing 5% nonfat milk for 90 min, and the membrane was incubated with the appropriate primary antibody in TBST-5% nonfat milk at 4° C. overnight. After washing three times with TBST for a total of 45 min, the transblotted membrane was incubated with goat anti-rabbit or anti-mouse IgG-horseradish peroxidase conjugates (diluted 1:1000) for 1 h at room temperature and washed four times with TBST for a total of 1 h. The immunoblots were visualized by enhanced chemiluminescence.” left out

[2] = MCF7, 24 h, 5% FBS, MTT, FIG. 8D, read-out: IC50 in inhibiting MCF-7 cell proliferation
[3] = MCF7, cell viability data, read-out: IC50 for MTT

Row | Structure (SMILES) | IC50 (MCF-7 cells; [2]) [µM] | IC50 (MCF-7 cells; [3]) [µM] | time of complete ablation of cyclin D1 (cyclin D1; 40 μM TG, 30 μM Δ2-TG) [h] | minimum concentration required for the complete ablation of cyclin D1 (cyclin D1) [µM] | concentration at which cyclin D1 levels are reduced (cyclin D1) [µM] | PPARγ activation (PPARγ) | mRNA level of cyclin D1 (cyclin D1 gene mRNA) | expression level of cyclin D2 and CDK4 [1] | expression level of the other cyclins and CDKs (D3, A, B, E, CDK2) [1] | extent of ubiquitination of cyclin D1 (ubiquitinated cyclin D1) | GSK-3β phosphorylation level (GSK-3β) | effect on ERα expression (ERα) | potency in ablating cyclin D1 relative to Δ2-TG (cyclin D1) | IC50 (cyclin D1; western blot data, read-out: IC50 for WB) [µM]
1 | Cc1c(C)c2c(c(C)c1O)CCC(C)(COc1ccc(/C=C3\SC(=O)NC3=O)cc1)O2 (stereo not shown) [Δ2-TG, 5-[4-(6-hydroxy-2,5,7,8-tetramethyl-chroman-2-yl-methoxy)-benzylidene]-2,4-thiazolidinedione] | 55 | 57 | 24 | 30 | ≥ 20 | inactive | remained unaltered | slight decrease | no appreciable effect | increased | remained unaltered | able to reduce | – | –
2 | C=CCOc1c(C)c(C)c2c(c1C)CCC(C)(COc1ccc(/C=C3\SC(=O)NC3=O)cc1)O2 (stereo not shown) [TG-6, 5-[4-(6-allyoxy-2,5,7,8-tetramethyl-chroman-2-yl-methoxy)-benzylidene]-2,4-thiazolidinedione] | 8 | 9 | – | – | ≥ 2.5 | devoid of activity | – | – | – | – | – | – | an-order-of-magnitude higher | 3
3 | CC1(COc2ccc(/C=C3\SC(=O)NC3=O)cc2)CCCCC1 [Δ2-CG, 5-[4-(1-methyl-cyclohexylmethoxy)-benzylidene]-thiazolidine-2,4-dione] | – | 70 | – | 30 | – | inactive | – | – | – | – | – | able to reduce | – | –
